In PMC11352859, “Functionalized Congeners of 2H-Chromene P2Y6 Receptor Antagonists” (Cells, 2024):
Values joined by “and” are separate entries in the source; they are usually repeats but may differ in a detail not shown here. Identical values can stand only once. Like-named read-outs stand apart in the source and are kept apart here.

Legend:
D2 = biological target: T1, D2 (Homo sapiens, UniProt P14416); experiment: PDSP binding assay, D2; settings: Table S2, single determination
T1 construct: NIMH Psychoactive Drug Screening Program (PDSP)
T1 sequence (P14416 whole entry): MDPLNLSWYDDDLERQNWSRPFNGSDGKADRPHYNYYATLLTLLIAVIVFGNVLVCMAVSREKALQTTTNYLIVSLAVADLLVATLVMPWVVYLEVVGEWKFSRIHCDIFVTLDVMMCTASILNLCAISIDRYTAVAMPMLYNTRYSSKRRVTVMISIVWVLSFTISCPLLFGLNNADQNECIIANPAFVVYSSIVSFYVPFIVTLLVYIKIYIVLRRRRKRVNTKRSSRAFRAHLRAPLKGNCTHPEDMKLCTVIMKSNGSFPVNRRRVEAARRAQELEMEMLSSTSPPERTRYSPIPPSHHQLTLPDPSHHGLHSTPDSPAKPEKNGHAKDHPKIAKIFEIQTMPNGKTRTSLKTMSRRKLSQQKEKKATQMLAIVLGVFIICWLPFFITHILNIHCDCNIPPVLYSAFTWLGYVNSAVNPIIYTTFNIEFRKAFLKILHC
Description: (§1) Table S2. Off-target screening (to replace table later). We thank Dr. Bryan L. Roth (Univ. North Carolina at Chapel Hill) and National Institute of Mental Health's Psychoactive Drug Screening Program (Contract # HHSN-271-2008-00025-C) for screening data. Reference: Besnard et al.
(§2) Procedures: https://pdsp.unc.edu/pdspweb/content/UNC-CH%20Protocol%20Book.pdf […]
(§3) nucleosides were found at the following sites (human unless noted): 5HT1A, 5HT1B, 5HT1D, […]
(§4) β3, BZP rat brain site, D1, D2, D3, D4, D5, GABAA, H1, H2, H3, H4, M1, M2, M5, δ-opioid receptor (DOR), κ-opioid receptor (KOR), μ-opioid receptor (MOR), σ1, σ2, DAT, NET, SERT. Ki values […]
(§5) Compound # PDSP # Receptor LogKi Ki (nM)

[1] = test system: 45 target sites (receptors, channels, and transporters); experiment: PDSP off-target binding screen at 45 target sites; parameters: species or system human; settings: PDSP binding assays
Description: as §1, §2, §3, §4, §5

α2B = biological target: T2, α2B (Homo sapiens, UniProt P18089); experiment: PDSP binding assay, α2B; settings: mean, n = 2
T2 construct: NIMH Psychoactive Drug Screening Program (PDSP)
T2 sequence (P18089 1-450): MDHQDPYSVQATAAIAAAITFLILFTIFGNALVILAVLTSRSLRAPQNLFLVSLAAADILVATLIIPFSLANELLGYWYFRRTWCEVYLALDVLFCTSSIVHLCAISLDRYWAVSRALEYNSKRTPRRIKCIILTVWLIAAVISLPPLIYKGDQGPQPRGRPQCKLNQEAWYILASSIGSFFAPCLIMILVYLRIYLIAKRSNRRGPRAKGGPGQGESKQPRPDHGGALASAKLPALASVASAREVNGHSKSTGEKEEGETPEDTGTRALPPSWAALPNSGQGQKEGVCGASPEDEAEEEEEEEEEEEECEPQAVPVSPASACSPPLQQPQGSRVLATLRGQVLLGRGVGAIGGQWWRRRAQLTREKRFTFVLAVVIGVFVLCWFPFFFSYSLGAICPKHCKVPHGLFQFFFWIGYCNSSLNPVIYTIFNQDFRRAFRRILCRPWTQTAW
Description: as §1, §2, §3, §4, §5

D5 = biological target: T3, D5 (Homo sapiens, UniProt P21918); experiment: PDSP binding assay, D5
T3 construct: NIMH Psychoactive Drug Screening Program (PDSP)
T3 sequence (P21918 whole entry): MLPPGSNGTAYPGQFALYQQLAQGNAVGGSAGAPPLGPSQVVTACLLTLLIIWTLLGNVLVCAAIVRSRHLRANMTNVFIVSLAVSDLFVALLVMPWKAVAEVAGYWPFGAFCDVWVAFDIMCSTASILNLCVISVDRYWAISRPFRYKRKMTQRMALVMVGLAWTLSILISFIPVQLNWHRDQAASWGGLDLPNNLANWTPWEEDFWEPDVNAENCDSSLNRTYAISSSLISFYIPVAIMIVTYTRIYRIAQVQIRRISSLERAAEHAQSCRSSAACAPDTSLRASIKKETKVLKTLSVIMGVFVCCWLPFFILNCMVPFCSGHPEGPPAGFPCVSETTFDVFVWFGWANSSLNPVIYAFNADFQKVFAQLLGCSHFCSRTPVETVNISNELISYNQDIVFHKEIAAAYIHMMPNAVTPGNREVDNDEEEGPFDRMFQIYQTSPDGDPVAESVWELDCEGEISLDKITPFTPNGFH
Description: as §1, §2, §3, §4, §5

D3 = biological target: T4, D3 (Homo sapiens, UniProt P35462); experiment: PDSP binding assay, D3; settings: Table S2, single determination
T4 construct: NIMH Psychoactive Drug Screening Program (PDSP)
T4 sequence (P35462 whole entry): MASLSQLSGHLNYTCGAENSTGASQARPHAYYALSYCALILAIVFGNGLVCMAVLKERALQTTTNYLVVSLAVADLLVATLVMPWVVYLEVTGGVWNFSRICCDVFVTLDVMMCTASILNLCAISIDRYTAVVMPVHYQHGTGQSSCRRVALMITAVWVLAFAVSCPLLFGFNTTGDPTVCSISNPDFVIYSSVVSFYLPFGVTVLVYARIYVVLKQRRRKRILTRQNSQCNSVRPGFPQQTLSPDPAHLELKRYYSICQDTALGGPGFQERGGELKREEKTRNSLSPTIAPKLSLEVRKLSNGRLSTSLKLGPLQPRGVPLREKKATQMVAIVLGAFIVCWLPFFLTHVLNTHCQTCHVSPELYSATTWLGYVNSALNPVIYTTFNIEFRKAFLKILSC
Description: as §1, §2, §3, §4, §5

HeLa cells = experiment: MTT cell viability assay, HeLa cells; format: cell-based, human; settings: for % survival: 12 h, MTT
Experimental: (§6) The 1321N1 astrocytoma (hP2Y6R-overexpressing) and HeLa (non-transfected) cell lines were cultured in Dulbecco’s modified Eagle’s medium (DMEM, HyClone, Logan, UT, USA) supplemented with 5% heat-inactivated fetal bovine serum (FBS, HyClone, UT, USA), 100 U/mL penicillin, and 100 µg/mL streptomycin in 5% CO2 at 37 °C. The cell viability was determined using an MTT kit (Sigma, St. Louis, MO, USA) according to the manufacturer’s instructions. Briefly, 1 × 10^4 cells were seeded in triplicate in 96-well plates. The hP2Y6R-astrocytoma and HeLa cells were treated with a P2Y6R agonist and antagonists at a range of concentrations and incubated for 12 h. The cell viability was measured at 490 nm using a SpectraMax-M5 Spectrometer (Molecular Devices, San Jose, CA, USA).

H2 = biological target: T5, H2 (Homo sapiens, UniProt P25021); experiment: PDSP binding assay, H2; settings: mean, n = 2
T5 construct: NIMH Psychoactive Drug Screening Program (PDSP)
T5 sequence (P25021 whole entry): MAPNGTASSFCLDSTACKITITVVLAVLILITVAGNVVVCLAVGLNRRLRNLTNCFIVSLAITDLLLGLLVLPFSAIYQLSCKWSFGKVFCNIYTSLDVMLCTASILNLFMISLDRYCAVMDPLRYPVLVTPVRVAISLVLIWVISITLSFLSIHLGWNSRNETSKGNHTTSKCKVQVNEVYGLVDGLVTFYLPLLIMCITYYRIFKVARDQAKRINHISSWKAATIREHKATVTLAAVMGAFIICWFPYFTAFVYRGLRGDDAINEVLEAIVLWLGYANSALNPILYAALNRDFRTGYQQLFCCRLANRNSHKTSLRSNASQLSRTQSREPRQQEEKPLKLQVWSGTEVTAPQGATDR
Description: as §1, §2, §3, §4, §5

SERT = biological target: T6, SERT (Homo sapiens, UniProt P31645); experiment: PDSP binding assay, SERT; settings: Table S2, single determination
T6 construct: NIMH Psychoactive Drug Screening Program (PDSP)
T6 sequence (P31645 whole entry): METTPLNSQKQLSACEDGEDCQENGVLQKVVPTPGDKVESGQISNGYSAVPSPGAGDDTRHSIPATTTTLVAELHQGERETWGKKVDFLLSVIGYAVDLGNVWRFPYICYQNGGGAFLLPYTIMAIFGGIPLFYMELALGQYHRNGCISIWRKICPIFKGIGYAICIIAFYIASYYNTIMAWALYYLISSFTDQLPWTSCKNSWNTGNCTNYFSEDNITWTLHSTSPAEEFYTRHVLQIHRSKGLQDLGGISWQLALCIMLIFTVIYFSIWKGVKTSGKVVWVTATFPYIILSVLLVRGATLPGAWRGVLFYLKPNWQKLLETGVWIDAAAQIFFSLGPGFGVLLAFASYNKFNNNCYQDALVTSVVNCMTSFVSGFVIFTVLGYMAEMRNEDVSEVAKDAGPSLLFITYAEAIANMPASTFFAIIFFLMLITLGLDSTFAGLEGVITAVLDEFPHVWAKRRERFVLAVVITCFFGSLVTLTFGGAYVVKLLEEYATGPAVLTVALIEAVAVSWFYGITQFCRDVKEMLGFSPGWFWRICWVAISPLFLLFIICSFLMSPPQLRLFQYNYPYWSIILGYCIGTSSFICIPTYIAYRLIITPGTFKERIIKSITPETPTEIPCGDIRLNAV
Description: as §1, §2, §3, §4, §5

D4 = biological target: T7, D4 (Homo sapiens, UniProt P21917); experiment: PDSP binding assay, D4; settings: mean, n = 2
T7 construct: NIMH Psychoactive Drug Screening Program (PDSP)
T7 sequence (P21917 whole entry): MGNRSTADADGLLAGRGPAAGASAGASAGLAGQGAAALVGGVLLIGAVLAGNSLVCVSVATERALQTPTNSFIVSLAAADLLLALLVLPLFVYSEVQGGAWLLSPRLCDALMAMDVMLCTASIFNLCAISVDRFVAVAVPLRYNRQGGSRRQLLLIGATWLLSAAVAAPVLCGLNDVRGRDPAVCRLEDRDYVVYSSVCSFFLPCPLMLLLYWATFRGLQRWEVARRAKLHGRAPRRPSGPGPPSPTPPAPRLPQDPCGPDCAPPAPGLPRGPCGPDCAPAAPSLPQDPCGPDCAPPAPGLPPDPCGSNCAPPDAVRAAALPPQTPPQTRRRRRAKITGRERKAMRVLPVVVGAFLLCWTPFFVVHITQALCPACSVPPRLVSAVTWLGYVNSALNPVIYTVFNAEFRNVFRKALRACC
Description: as §1, §2, §3, §4, §5

κ-opioid receptor (KOR) = biological target: T8, κ-opioid receptor (KOR) (Homo sapiens, UniProt P41145); experiment: PDSP binding assay, κ-opioid
T8 construct: NIMH Psychoactive Drug Screening Program (PDSP)
T8 sequence (P41145 whole entry): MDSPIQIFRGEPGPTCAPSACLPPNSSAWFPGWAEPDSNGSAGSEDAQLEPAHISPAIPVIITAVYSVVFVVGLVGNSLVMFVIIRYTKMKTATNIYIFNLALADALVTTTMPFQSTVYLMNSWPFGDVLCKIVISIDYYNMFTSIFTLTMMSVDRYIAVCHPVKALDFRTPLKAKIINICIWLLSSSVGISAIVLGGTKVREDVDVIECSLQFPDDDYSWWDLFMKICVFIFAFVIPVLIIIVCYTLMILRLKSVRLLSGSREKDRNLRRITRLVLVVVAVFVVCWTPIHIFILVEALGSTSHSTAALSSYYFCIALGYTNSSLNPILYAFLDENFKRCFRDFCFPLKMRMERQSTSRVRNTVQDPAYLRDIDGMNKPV
Description: as §1, §2, §3, §4, §5

hP2Y14R = biological target: T9, hP2Y14R (Homo sapiens, UniProt Q15391); experiment: whole-cell binding of fluorescent antagonist MRS4174 in CHO-hP2Y14R cells (flow cytometry)
T9 construct: expressed in transfected cells
T9 sequence (Q15391 1-338): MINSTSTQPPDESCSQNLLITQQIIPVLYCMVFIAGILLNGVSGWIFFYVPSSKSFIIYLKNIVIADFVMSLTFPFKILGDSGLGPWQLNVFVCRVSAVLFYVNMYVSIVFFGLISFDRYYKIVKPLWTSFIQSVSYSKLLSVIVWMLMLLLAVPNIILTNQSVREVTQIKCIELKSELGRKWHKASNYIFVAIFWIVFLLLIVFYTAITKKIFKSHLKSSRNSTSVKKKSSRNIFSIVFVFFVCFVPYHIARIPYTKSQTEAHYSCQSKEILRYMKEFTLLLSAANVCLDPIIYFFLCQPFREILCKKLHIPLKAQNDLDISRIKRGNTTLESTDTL

[2] = test system: hP2Y6R-1321N1 human astrocytoma cells; experiment: MTT cell viability assay, hP2Y6R-1321N1 astrocytoma cells; format: cell-based; settings: for % survival: P2Y6R-astrocytoma, 12 h, MTT
Experimental: as §6

α2A = biological target: T10, α2A (Homo sapiens, UniProt P08913); experiment: PDSP binding assay, α2A
T10 construct: NIMH Psychoactive Drug Screening Program (PDSP)
T10 sequence (P08913 1-465): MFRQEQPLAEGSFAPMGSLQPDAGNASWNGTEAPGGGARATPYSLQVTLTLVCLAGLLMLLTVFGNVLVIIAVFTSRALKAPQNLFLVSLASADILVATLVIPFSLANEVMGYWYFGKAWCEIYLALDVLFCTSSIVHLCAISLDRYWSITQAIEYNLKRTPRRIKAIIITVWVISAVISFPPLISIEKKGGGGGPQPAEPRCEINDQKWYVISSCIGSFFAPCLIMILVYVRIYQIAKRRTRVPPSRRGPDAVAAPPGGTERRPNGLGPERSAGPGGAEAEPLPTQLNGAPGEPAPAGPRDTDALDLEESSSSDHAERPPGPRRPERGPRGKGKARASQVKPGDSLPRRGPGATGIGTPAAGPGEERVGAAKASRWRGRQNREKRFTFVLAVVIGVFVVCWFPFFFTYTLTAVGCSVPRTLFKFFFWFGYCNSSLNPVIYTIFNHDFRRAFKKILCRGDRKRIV
Description: as §1, §2, §3, §4, §5

CC(C)(C)OC(=O)NCCCCCCCC#Cc1ccc2c(c1)C=C([N+](=O)[O-])C(C(F)(F)F)O2 (stereo not shown) [Compound 30, tert-Butyl (9-(3-nitro-2-(trifluoromethyl)-2H-chromen-6-yl)non-8-yn-1-yl)carbamate]
Ki (D2): > 10000 nM | off-target interactions at 45 target sites [1]: seven off-target interactions | Ki (α2B): 170 nM | Ki (D5; PDSP, mean, n = 2, read-out: Ki, D5): 780 nM | Ki (D5; Table S2, single determinations, read-out: Ki (nM), D5): 643 nM and 911 nM | Ki (D3): > 10000 nM | % survival (HeLa cells; 0.05 µM): 94% | % survival (HeLa cells; 0.1 µM): 94% | % survival (HeLa cells; 0.5 µM): 87% | % survival (HeLa cells; 1 µM): 71% | inhibition of viability (HeLa cells; at 1 µM, 12 h exposure): 29% | Ki (H2): 500 nM | Ki (SERT): > 10000 nM | Ki (D4): 3100 nM | Ki (κ-opioid receptor (KOR); PDSP, mean, n = 2, read-out: Ki, κ-opioid): 2200 nM | Ki (κ-opioid receptor (KOR); Table S2, single determination, read-out: Ki (nM), KOR): 1400 nM | IC50 (hP2Y14R; CHO-hP2Y14, competitive binding, flow cytometer): 21400 ± 5800 nM | fold selective compared to the hP2Y14R (hP2Y14R; hP2Y6R vs hP2Y14R): 132 fold | % survival ([2]; 0.05 µM): 98% | % survival ([2]; 0.1 µM): 98% | % survival ([2]; 0.5 µM): 83% | % survival ([2]; 1 µM): 77% | inhibition of viability ([2]; hP2Y6R-1321N1 cells, at 1 µM, 12 h exposure): 23% | Ki (α2A; PDSP, mean, n = 2, read-out: Ki, α2A): 86 nM | Ki (α2A; Table S2, single determinations, read-out: Ki (nM), Alpha2A): 80.2 nM and 90.7 nM
